# From ChEMBL document CHEMBL1141185, “4,6-Disubstituted 2,2-dimethylchromans structurally related to the K(ATP) channel opener cromakalim: design, synthesis, and effect on insulin release and vascular tone” (J Med Chem, 2005)
# Legend:
# Format in all cases: functional
# Rattus norvegicus [1] = species: Rattus norvegicus; assay: Percentage of residual insulin secretion value in the pancreatic islets of rat after treatment with the compound at 10 uM concentration
# Rattus norvegicus [2] = species: Rattus norvegicus; assay: Myorelaxant activity of the compound against insulin secretion in the pancreatic islets ofrat; (activity expressed as ED50); conditions: read-out: ED50 (the source's name)
# Rattus norvegicus [3] = species: Rattus norvegicus; assay: Inhibitory concentration against rat vascular smooth muscle tissue
# Rattus norvegicus [4] = species: Rattus norvegicus; assay: Myorelaxant effect on 80 mM KCl induced rat aorta rings determined; (activity expressed as ED50); conditions: read-out: ED50 (the source's name)
# Rattus norvegicus [5] = species: Rattus norvegicus; assay: Myorelaxant effect on 30 mM KCl induced rat aorta rings determined; (activity expressed as ED50); conditions: read-out: ED50 (the source's name)
# Rattus norvegicus [6] = species: Rattus norvegicus; assay: Myorelaxant effect on 30 mM KCl induced rat aorta rings determined after incubated with the 1 uM glibenclamide in the medium; (activity expressed as ED50); conditions: read-out: ED50 (the source's name)
# Rattus norvegicus [7] = species: Rattus norvegicus; assay: Myorelaxant effect on 30 mM KCl induced rat aorta rings determined after incubated with the 10 uM glibenclamide in the medium; (activity expressed as ED50); conditions: read-out: ED50 (the source's name)
# Rattus norvegicus [8] = species: Rattus norvegicus; assay: Myorelaxant effect of the compound on 80 mM KCl induced rat aorta rings determined; (activity expressed as ED50); conditions: read-out: ED50 (the source's name)
# Rattus norvegicus [9] = species: Rattus norvegicus; assay: Myorelaxant effect of the compound on 30 mM KCl induced rat aorta rings determined after incubated with the 0 uM glibenclamide in the medium; (activity expressed as ED50); conditions: read-out: ED50 (the source's name)
# Rattus norvegicus [10] = species: Rattus norvegicus; assay: Myorelaxant effect of the compound on 30 mM KCl induced rat aorta rings determined after incubated with the 1 uM glibenclamide in the medium; (activity expressed as ED50); conditions: read-out: ED50 (the source's name)
# Rattus norvegicus [11] = species: Rattus norvegicus; assay: Myorelaxant effect of the compound on 30 mM KCl induced rat aorta rings determined after incubated with the 10 uM glibenclamide in the medium; (activity expressed as ED50); conditions: read-out: ED50 (the source's name)
SMILES,Residual secretion (Rattus norvegicus [1]),EC50 (Rattus norvegicus [2]),further results
CCOC(=O)NC1CC(C)(C)Oc2ccc(F)cc21 (stereo not given),100.8%,72.4 µM,–
CC(N/C(=N\C#N)Nc1ccncc1)C(C)(C)C (stereo not given) [PINACIDIL ANHYDROUS],96%,0.35 µM,IC50 (Rattus norvegicus [3]): 350 nM
CC1(C)CC(NC(=S)NCc2ccccc2)c2cc(Br)ccc2O1 (stereo not given),51.8%,24.8 µM,–
CCNC(=O)NC1CC(C)(C)Oc2ccc(Br)cc21 (stereo not given),91.5%,7.6 µM,–
CC(=O)NC1CC(C)(C)Oc2ccc(Br)cc21 (stereo not given),94.2%,6.4 µM,–
CC(C)NC(=S)NC1CC(C)(C)Oc2ccc(F)cc21 (stereo not given),88.7%,18.5 µM,–
CC1=Nc2ccc(Cl)cc2S(=O)(=O)N1 [DIAZOXIDE],71.7%,23.8 µM,IC50 (Rattus norvegicus [3]): 23800 nM
CCNC(=S)NC1CC(C)(C)Oc2ccc(Br)cc21 (stereo not given),80.8%,3.7 µM,–
CCOC(=O)NC1CC(C)(C)Oc2ccc(Br)cc21 (stereo not given),88.8%,25.7 µM,–
Cc1ccc(S(=O)(=O)NC(=O)NC2CC(C)(C)Oc3ccc(Cl)cc32)cc1 (stereo not given),103.5%,63.6 µM,–
CCNC(=O)NC1CC(C)(C)Oc2ccc(F)cc21 (stereo not given),106.2%,42.9 µM,–
CC1(C)CC(NC(=S)NCc2ccccc2)c2cc(F)ccc2O1 (stereo not given),54.4%,4.3 µM,–
CC(C)NC(=O)NC1CC(C)(C)Oc2ccc(F)cc21 (stereo not given),98.4%,109 µM,–
CC1(C)CC(NC(=S)NCc2ccccc2)c2cc(Cl)ccc2O1 (stereo not given),45.4%,20.2 µM,–
CC(C)NC(=S)NC1CC(C)(C)Oc2ccc(Cl)cc21 (stereo not given),83.3%,10.9 µM,–
CC1(C)CC(NC(=O)NCc2ccccc2)c2cc(F)ccc2O1 (stereo not given),80.8%,–,–
CC(C)NC(=O)NC1CC(C)(C)Oc2ccc(Cl)cc21 (stereo not given),86.3%,144 µM,–
CCNC(=O)NC1CC(C)(C)Oc2ccc(Cl)cc21 (stereo not given),89.5%,6.8 µM,–
CC1(C)CC(NC(=O)NCc2ccccc2)c2cc(Cl)ccc2O1 (stereo not given),67.1%,15.3 µM,–
CC(=O)NC1CC(C)(C)Oc2ccc(Cl)cc21 (stereo not given),100.8%,6.6 µM,EC50 (Rattus norvegicus [4]): 84.2 µM; EC50 (Rattus norvegicus [5]): 6.3 µM; EC50 (Rattus norvegicus [6]): 33.8 µM; EC50 (Rattus norvegicus [7]): 44.6 µM
CC1(C)CC(NC(=O)NS(=O)(=O)c2ccccc2)c2cc(Cl)ccc2O1 (stereo not given),94.7%,210 µM,–
CC(=O)NC1CC(C)(C)Oc2ccc(F)cc21 (stereo not given),83.8%,46.5 µM,–
CCOC(=O)NC1CC(C)(C)Oc2ccc(Cl)cc21 (stereo not given),83.3%,38.5 µM,–
CCNC(=S)NC1CC(C)(C)Oc2ccc(F)cc21 (stereo not given),82.5%,17.6 µM,–
CC1(C)CC(NC(=O)NS(=O)(=O)c2ccc(Cl)cc2)c2cc(Cl)ccc2O1 (stereo not given),89.2%,51 µM,–
CC(C)NC(=S)NC1CC(C)(C)Oc2ccc(Br)cc21 (stereo not given),58.9%,8.7 µM,–
CC1(C)CC(NC(=O)NCc2ccccc2)c2cc(Br)ccc2O1 (stereo not given),58.5%,> 300 µM,–
CC1(C)Oc2ccc(C#N)cc2C(N2CCCC2=O)C1O (stereo not given) [CROMAKALIM],94.7%,0.13 µM,EC50 (Rattus norvegicus [8]): > 300 µM; IC50 (Rattus norvegicus [3]): 130 nM; EC50 (Rattus norvegicus [9]): 140 nM; EC50 (Rattus norvegicus [10]): 1800 nM; EC50 (Rattus norvegicus [11]): 15.2 µM
CC(C)NC(=O)NC1CC(C)(C)Oc2ccc(Br)cc21 (stereo not given),79.1%,> 300 µM,–
CCNC(=S)NC1CC(C)(C)Oc2ccc(Cl)cc21 (stereo not given),96.5%,8.2 µM,–
